Like-named read-outs stand apart in the source and are kept apart here.
Columns and labels:
Format in all cases: in vivo
[1] = tested on: Alopecurus myosuroides (ALOMY); test: Post-emergence herbicidal action against ALOMY; conditions: 320 g/ha, visual rating about 3 weeks after treatment vs untreated controls (100% = plants have died, 0% = like control plants)
Summary of the method: (§1)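 Greenhouse plants sprayed at the one-leaf stage, 2–3 weeks after sowing, with WP or EC formulations plus 0.5% additive at 600 l/ha water. Activity rated visually after about 3 weeks versus untreated controls (100% = dead, 0% = like control), at 320 g/ha or lower.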

Setaria viridis (SETVI) = test: Post-emergence herbicidal action against SETVI
Summary of the method: as §1

[2] = tested on: Pharbitis purpurea (PHBPU); test: Post-emergence herbicidal action against PHBPU
Summary of the method: as §1

Viola tricolor (VIOTR) = test: Post-emergence herbicidal action against VIOTR
Summary of the method: as §1

[3] = tested on: Abutilon theophrasti (ABUTH); test: Post-emergence herbicidal action against ABUTH; conditions: 320 g/ha, visual rating about 3 weeks after treatment vs untreated controls (100% = plants have died, 0% = like control plants)
Summary of the method: as §1

Avena fatua (AVEFA) = test: Post-emergence herbicidal action against AVEFA; conditions: 320 g/ha, visual rating about 3 weeks after treatment
Summary of the method: as §1

[4] = tested on: Echinochloa crus-galli (ECHCG); test: Post-emergence herbicidal action against ECHCG
Summary of the method: as §1

[5] = tested on: Amaranthus retroflexus (AMARE); test: Post-emergence herbicidal action against AMARE
Summary of the method: as §1

[6] = tested on: Digitaria sanguinalis (DIGSA); test: Post-emergence herbicidal action against DIGSA; conditions: visual rating about 3 weeks after treatment
Summary of the method: as §1

[7] = tested on: Triticum aestivum (TRZAS); conditions: crop plant compatibility, effect vs untreated controls
Summary of the method: (§2)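 Percent effect on the crop was judged by eye against untreated controls, where 0% means like control and 100% means dead plants. Plants had been sprayed post-emergence at the one-leaf stage and then kept under optimum greenhouse conditions for about 3 weeks.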

Oryza sativa (ORYSA) = conditions: crop plant compatibility
Summary of the method: as §2

Zea mays (ZEAMX) = conditions: for Post-emergence action against ZEAMX in % (crop plant compatibility): 20 g/ha, effect in comparison to untreated controls; for Post-emergence action against ZEAMX in %: crop plant compatibility, 80 g/ha, effect vs untreated controls
Summary of the method: as §2

Lolium rigidum (LOLRI) = test: Post-emergence herbicidal action against LOLRI
Summary of the method: as §1

[8] = tested on: Verconica persica (VERPE); test: Post-emergence herbicidal action against VERPE
Summary of the method: as §1

[9] = tested on: Matricaria inodora (MATIN); test: Post-emergence herbicidal action against MATIN; conditions: dosage 320 g/ha
Summary of the method: as §1

[10] = tested on: Polygonum convolvulus (POLCO); test: Post-emergence herbicidal action against POLCO
Summary of the method: as §1

[11] = 320 g/ha, visual rating about 3 weeks after treatment
[12] = 20 g/ha, effect vs untreated controls
[13] = 80 g/ha, effect in comparison to untreated controls

Post-emergence action against TRZAS in % ([7]; 20 g/ha) [%]	Post-emergence action against ORYSA in % (Oryza sativa (ORYSA); [12]) [%]	Post-emergence action against ORYSA in % (Oryza sativa (ORYSA); [13]) [%]	Post-emergence action against ZEAMX in % (crop plant compatibility) (Zea mays (ZEAMX)) [%]	Structure (SMILES)	Post-emergence action against ALOMY in % [1] [%]	Post-emergence action against SETVI in % (Setaria viridis (SETVI); dosage 80 g/ha) [%]	Post-emergence action against SETVI in % (Setaria viridis (SETVI); dosage 320 g/ha) [%]	Post-emergence action against PHBPU in % ([2]; dosage 320 g/ha) [%]	Post-emergence action against VIOTR in % (Viola tricolor (VIOTR); 80 g/ha) [%]	Post-emergence action against VIOTR in % (Viola tricolor (VIOTR); 320 g/ha) [%]	Post-emergence action against ABUTH in % [3] [%]	Post-emergence action against AVEFA in % (Avena fatua (AVEFA)) [%]	Post-emergence action against ECHCG in % ([4]; dosage 80 g/ha) [%]	Post-emergence action against ECHCG in % ([4]; dosage 320 g/ha) [%]	Post-emergence action against AMARE in % [5, 11] [%]	Post-emergence action against DIGSA in % ([6]; 80 g/ha) [%]	Post-emergence action against DIGSA in % ([6]; 320 g/ha) [%]	Post-emergence action against VERPE in % ([8]; 320 g/ha, VERPE) [%]	Post-emergence action against VERPE in % ([8]; dosage 80 g/ha) [%]	Post-emergence action against MATIN in % [9] [%]	further results
20	0	20	10	O=C(COc1nn(-c2ncccc2F)c(-c2ccc(F)nc2)c1C1CC1)OCc1ccccc1 [Example I-287]	90	90	90	80	80	90	90	90	90	90	80	80	80	80	80	80	Post-emergence action against AMARE in % ([5]; 80 g/ha, visual rating about 3 weeks after treatment vs untreated controls (100% = plants have died, 0% = like control plants)): 80%; Post-emergence action against ZEAMX in % (Zea mays (ZEAMX)): 20%; Post-emergence action against LOLRI in % (Lolium rigidum (LOLRI); dosage 80 g/ha): 90%; Post-emergence action against LOLRI in % (Lolium rigidum (LOLRI); dosage 320 g/ha): 90%
10	10	–	20	N#CCOC(=O)COc1nn(-c2ncccc2F)c(-c2ccc(F)nc2)c1C1CC1 [Example I-294]	90	90	90	–	90	90	80	90	80	90	80	80	90	90	90	90	Post-emergence action against LOLRI in % (Lolium rigidum (LOLRI); dosage 320 g/ha): 90%
0	0	0	–	CCOC(=O)COc1nn(-c2cccnc2C)c(-c2cncc(F)c2)c1Br [II-45]	90	–	90	90	90	90	80	90	–	90	80	–	80	90	90	90	Post-emergence action against POLCO in % ([10]; dosage 80 g/ha): 80%; Post-emergence action against POLCO in % ([10]; dosage 320 g/ha): 90%
0	0	0	0	COC(=O)CCOC(=O)COc1nn(-c2cccnc2C)c(-c2cncc(F)c2)c1Br [II-41]	90	–	90	90	80	90	80	90	–	90	80	–	80	90	90	80	Post-emergence action against PHBPU in % ([2]; dosage 80 g/ha): 80%; Post-emergence action against TRZAS in % ([7]; 80 g/ha): 0%; Post-emergence action against ORYSA in % (Oryza sativa (ORYSA); 320 g/ha, effect in comparison to untreated controls): 0%; Post-emergence action against ZEAMX in % (Zea mays (ZEAMX)): 0%

Reference: patent publication US20240041042A1, “1-(PYRIDYL)-5-AZINYLPYRAZOLE DERIVATIVES, AND THEIR USE FOR CONTROL OF UNDESIRED PLANT GROWTH” (Bayer Aktiengesellschaft, priority 2020, published 2024)
